{"source": "patent US10143705B2", "about": "“Method of treating a patient with a disease caused by a pathogenic mechanism associated with accumlation of methylglyoxal” (priority 2015, dated 2018)", "assay": "Inhibitory effect of monosaccharides against methylglyoxal in vitro", "settings": "concentration 0.05 M", "excerpt": "The percentage inhibitory ratio of monosaccharide against methylglyoxal is 50% when the concentration of the monosaccharide is 0.05 M.\nForegoing exemplary embodiments of the present invention manifest that the low-molecular-weight chitosan has considerable effect to the carbonyl stress induced by the methylglyoxal both in vivo and in vitro. For an exemplary embodiment in vitro, the present invention employs buffer to simulate the same environmental status as human body by means of putting glucosamine and low-molecular-weight chitosan into buffer containing methylglyoxal to measure the bonding ratio thereof after 16 hours so that the half Inhibitory concentration associated with the affecting of low-molecular-weight chitosan to methylglyoxal can be obtained for further study on the examination of the binding conjugation of low-molecular-weight chitosan with methylglyoxal in vitro.", "data": [{"smiles": "NC1C(O)[C@H](O)C(CO)O[C@@H]1O", "note": "(stereo partly shown) [monosaccharide, glucosamine]", "values": [{"measurement": "percentage inhibitory ratio against methylglyoxal", "result": 50, "unit": "%"}]}]}
